This passage reports IC50 results from ChEMBL document CHEMBL1153530, “Pursuing aldose reductase inhibitors through in situ cross-docking and similarity-based virtual screening” (J Med Chem, 2009).

By IC50 is commonly meant the concentration needed to halve the response being measured. A higher IC50 goes with a need for much substance.

Each structure is given as a SMILES string.

The target in the assay is Aldo-keto reductase family 1 member B1 (Rattus norvegicus, UniProt P07943). In words: Inhibition of ALR2 from Sprague-Dawley albino rat lens extract by spectrophotometrically.
Compound `O=C(O)[C@@H]1CSCN1C(=O)OCC1c2ccccc2-c2ccccc21` came in with an IC50 of 3.92 µM.

In turn, `CN(C)C(=O)Oc1ccc2nnc3ccnn3c2c1` gave an IC50 of 38.7 µM.

`N#CC(C#N)=CNc1ccc(S(=O)(=O)c2ccc(NC=C(C#N)C#N)cc2)cc1` returned an IC50 of 52.7 µM.

`Cc1ccc(S(=O)(=O)Oc2c(Cc3ccccc3)c(=O)n(C)c3ccccc23)cc1` had an IC50 of 31.1 µM.

Regarding `O=[N+]([O-])c1c(Sc2ccccc2)sc(Sc2ccccc2)c1[N+](=O)[O-]`, 48.1 µM corresponded to half-maximal inhibition (IC50).

For `O=C(O)C(Cc1ccc([N+](=O)[O-])cc1)NS(=O)(=O)c1ccccc1` (stereo unspecified), half-maximal inhibition (IC50) was put at 107 µM.

As for `O=S(=O)(Oc1ccc2nonc2c1)c1ccc(Cl)s1`, the IC50 amounted to 35.6 µM.

With `O=C(O)[C@H]1Cc2ccccc2N1C(=O)OCc1ccccc1`, the IC50 was 41.4 µM.

`COc1cccc2c1c(NC(=O)CSCC(=O)O)nn2C` gave an IC50 of 77.6 µM.

In turn, `O=C(O)C[C@@H](CC(=O)Nc1ccc2ccccc2n1)c1ccccc1` displayed a half-maximal inhibitory concentration (IC50) of 85.3 µM.

With `O=C(O)CCCc1nc(-c2cnc3n(c2=O)CCS3)no1`, the IC50 is 1.19 µM.
